# Results taken from patent publication US20240043539A1, “METHODS OF INDUCING AN IMMUNOMODULATORY TUMOR RESPONSE” (CORNELL UNIVERSITY, priority 2020, published 2024).
# Columns and labels:
# Assay type in all cases: cell-based, mouse
# [1] = test system: oTME macrophages (BMDMs); experiment: γ-secretase inhibition: Ki67 in M2-educated (oTME) macrophages, flow cytometry
# Description: BMDMs were co-cultured with oTME cells for 7 days and treated either with CompE ([…]) or DMSO as a control for additional 10 days. Cells were analyzed by flow cytometry for Ki67, F4/80, and CD11b. Data (n=3) are shown as mean±SD., 2-way ANOVA test, Bonferroni-corrected. FIG. 17D is a pre-clinical study design. […] Tumor sizes were recorded by caliper and shown as mean±SD., 2-way ANOVA test, Bonferroni-corrected. At the trial endpoint, lungs were collected and stained with H&E (right). […] At study endpoint, tumor transplants from (FIG. 17E) were scored for Ki67 in macrophages and in tumor cells (PyMT; mT^neg CD45^neg). Data are shown as mean±SD., 2-way ANOVA test, Bonferroni-corrected. Macrophage abundance quantified as percent of CD45+ cells. Data are shown as mean±SD., Mann-Whitney test. […]
# [2] = test system: Arg1-EYFP BMDMs co-cultured with oTME cells
# Description: FIGS. 6A-6H show a genome-wide pooled M2-like education screen in primary macrophages. […] Gene hits in EYFP″g BMDMs are highlighted in red. Distribution of LFC values (red lines) across all four sgRNAs of select gene targets (right). […] Arg1-EYFP BMDMs were co-cultured with oTME cells for 7 days, and then were treated with Abemaciclib (5, 10 μM) or DMSO for additional 7 days and analyzed by flow cytometry for EYFP (n=4 replicates). Data are shown as mean±SD., 2-tailed unpaired Student's t-test. […] Arg1-EYFP BMDMs were treated for 7 days with a cytokines cocktail consists of IL-4 (10 ng/mL), IL-13(80ng/mL), M-CSF(10 ng/mL) or with M-CSF alone as control (supplemented every 3 days). Cells were then treated with Abemaciclib (5 μM) or DMSO for additional 7 days and analyzed by flow cytometry for EYFP (n=3 replicates). Data are shown as mean±SD., 2-tailed unpaired Student's t-test. […] Cells then treated with PF-431369 (5 uM) or DMSO for additional 7 days. On day 14, cells were fixed and stained for Arg1 and CD206 and analyzed by flow cytometry. (n=3 replicates). Data are shown as mean±SD., 2-tailed unpaired Student's t-test. […]
# Flow Cytometry and Fluorescence-Activated Cell Sorting (FACS): Flow cytometry data were collected using BD LSRFortessa, BD FACSCanto II, and BD FACSAria III was used for FACS-sort. […]
# [3] = test system: IL-4/IL-13-treated macrophages (BMDMs); experiment: Arg1 expression in IL-4/IL-13-treated macrophages (absence of oTME cells), flow cytometry
# [4] = test system: BMDMs plated with oTME cells; experiment: EdU incorporation in macrophages following 48 hrs oTME education in the presence of Tyk2 inhibitors; settings: BMS-986165, 10 μM vs DMSO, EdU 10 μM
# Text: FIGS. 3A-3H show the time course single-cell RNAseq analysis of macrophage TME-education. […] Cells were profiled after 2 and 10 days with the 10× Chromium single-cell RNA-seq platform. […] The figure legend is the same as FIG. 3B. FIG. 3D is a heatmap showing macrophage education expression dynamics of M-CSF-treated (n=214), early (day 2, n=235), late (day 10, n=301) genes. The cells are sorted and split into 20 equal-width bins by the education pseudo-time, average expression level (row-wise Z-score; color scale) of education signature genes (rows) across each bin (columns) is shown. The figure legend is the same as FIG. 3B. […] Genes are dotted and colored by logFC levels (color scale), the size of each dot represents the difference in the fraction of detection between the two groups. The p values were determined by Wilcoxon Rank Sum test. Vertical dotted lines represent ±0.75 logFC. Horizontal dotted lines represent p value of 0.01 (−log10 scale). […] Each dot represents an average of cells in 50 equal-width bins on the education pseudo-time axis, same as FIG. 3E. […] EdU incorporation was analyzed by flow cytometry (n=4 replicates). […]
# EdU Incorporation: Cells were incubated with 10μM EdU (5-ethynyl-2′-deoxyuridine) without changing conditioned growth medium for the required duration and analyzed by flow cytometry according to the manufacturer's instructions (A10202; Thermo Fisher Scientific). […]
structure (smiles),measurement,setting,value
C[C@H](NC(=O)Cc1cc(F)cc(F)c1)C(=O)N[C@H]1N=C(c2ccccc2)c2ccccc2N(C)C1=O [Compound-E],reduction in Ki67 positivity,"[1]; 7 days co-culture, then CompE or DMSO for additional 10 days",89.6±3.8%
same,expression of F4/80,[1]; oTME macrophages after treatment,increased
CN(c1ccccc1CNc1nc(Nc2ccc3c(c2)CC(=O)N3)ncc1C(F)(F)F)S(C)(=O)=O [PF-431396],Arg1 expression,"[2]; oTME macrophages, 10 μM or DMSO for additional 7 days, EYFP by flow cytometry",robust suppression
same,Arg1 expression,"[3]; IL-4/IL-13-treated macrophages, 5 uM or DMSO for additional 7 days, stained for Arg1 and CD206",robust suppression
"[2H]C([2H])([2H])NC(=O)c1nnc(NC(=O)C2CC2)cc1Nc1cccc(-c2ncn(C)n2)c1OC [Tyk2 inhibitors, 6-(cyclopropanecarbonylamino)-4-[2-methoxy-3-(1-methyl-1,2,4-triazol-3-yl)anilino]-N-(trideuteriomethyl)pyridazine-3-carboxamide]",EdU incorporation in oTME macrophages,[4],significantly decreased
"CCN1CCN(Cc2ccc(Nc3ncc(F)c(-c4cc(F)c5nc(C)n(C(C)C)c5c4)n3)nc2)CC1 [abemaciclib, N-[5-[(4-ethylpiperazin-1-yl)methyl]pyridin-2-yl]-5-fluoro-4-(7-fluoro-2-methyl-3-propan-2-ylbenzimidazol-5-yl)pyrimidin-2-amine]",Arg1-EYFP expression,"[2]; oTME-educated Arg1-EYFP BMDMs, Abemaciclib (5, 10 μM) or DMSO for additional 7 days",dose-dependent reduction
same,Arg1-EYFP expression,"[3]; IL-4/IL-13/M-CSF for 7 days, then Abemaciclib (5 μM) or DMSO for additional 7 days",suppressed
